Data: US4058659A, “6,8-Disubstituted purine derivatives of 9-β-D-ribofuranosyl 3',5'-cyclic phosphate” (ICN Pharmaceuticals, Inc., priority 1975, dated 1977)
Where a name gives a salt, the structure may show the parent alone. Values belong to the compound of their own block, whether it stands above or below them.

Experiments:
protein kinase = assay: Protein kinase activation relative to cyclic AMP; type: biochemical; settings: compared with cyclic AMP
adenyl cyclase = assay: Inhibition of adenyl cyclase function; type: biochemical
phosphodiesterase = assay: Phosphodiesterase inhibition; type: biochemical
[1] = Antihypertensive properties in in vivo animal testing
[2] = Anti-inflammatory activity in in vivo animal testing
[3] = tested on: isolated cat papillary muscle; assay: Positive inotropic effect: % change in contractile force in isolated cat papillary muscle; settings: for activation at 1 µg/mL: 1.0 μg/ml; for activation at 3.1 µg/mL: 3.1 μg/ml; for activation at 10 µg/mL: 10.0 μg/ml; for activation at 31 µg/mL: 31.0 μg/ml; for activation at 100 µg/mL: 100 μg/ml; for activation at 310 µg/mL: 310 μg/ml; for positive inotropic effect: statement in words, isolated cat papillary muscle
[4] = Felis catus, read-out: % change in Contractile Force (CF)

Structure (SMILES): CC(=O)O[C@@H]1[C@@H]2OP(=O)(O)OC[C@H]2O[C@H]1n1c(SCc2ccccc2)nc2c(Cl)ncnc21 [Compound 13, 2'-o-acetyl-8-(benzylthio)-6-chloro-9-β-D-ribofuranosylpurine 3',5'-Cyclic Phosphate Sodium Salt]
inhibition of phosphodiesterase (phosphodiesterase): inhibit phosphodiesterase markedly

Structure (SMILES): O=P1(O)OC[C@H]2O[C@@H](n3c(SCc4ccccc4)nc4c(SCc5ccccc5)ncnc43)[C@H](O)[C@@H]2O1 [Compound 14, 6,8-Bis-(benzylthio)-9-D-ribofuranosylpurine 3',5'-Cyclic Phosphate Sodium Salt]
inhibition of phosphodiesterase (phosphodiesterase): inhibit phosphodiesterase markedly

Structure (SMILES): CCN(CC)c1ncnc2c1nc(SCc1ccccc1)n2[C@@H]1O[C@@H]2COP(=O)(O)O[C@H]2[C@H]1O [Compound 15, 8-(Benzylthio)-6-(diethylamino)-9-β-D-ribofuranosylpurine 3',5'-CyclicPhosphate]
inhibition of phosphodiesterase (phosphodiesterase): inhibit phosphodiesterase markedly

Structure (SMILES): O=P1(O)OC[C@H]2O[C@@H](n3c(SCc4ccccc4)nc4c(N5CCCCC5)ncnc43)[C@H](O)[C@@H]2O1 [Compound 16, 8-(Benzylthio)-6-piperidino-9-β-D-ribofuranosylpurine 3',5'-Cyclic Phosphate]
anti-inflammatory activity [2]: displayed anti-inflammatory activity
inhibition of adenyl cyclase function (adenyl cyclase): inhibit adenyl cyclase function
inhibition of phosphodiesterase (phosphodiesterase): inhibit phosphodiesterase markedly

Structure (SMILES): CCCCNc1ncnc2c1nc(SCc1ccccc1)n2[C@@H]1O[C@@H]2COP(=O)(O)O[C@H]2[C@H]1O [Compound 17, 8-(Benzylthio)-6-(n-butylamino)-9-β-D-ribofuranosylpurine 3',5'-CyclicPhosphate]
activation at 1 µg/mL [3, 4]: 7.5%
activation at 3.1 µg/mL [3, 4]: 10%
activation at 10 µg/mL [3, 4]: 19.3%
activation at 31 µg/mL [3, 4]: 24%
activation at 100 µg/mL [3, 4]: 30%
activation at 310 µg/mL [3, 4]: 39%
positive inotropic effect [3]: exhibit positive inotropic effect
inhibition of phosphodiesterase (phosphodiesterase): inhibit phosphodiesterase markedly

Structure (SMILES): O=P1(O)OC[C@H]2O[C@@H](n3c(SCc4ccccc4)nc4c(N5CCCC5)ncnc43)[C@H](O)[C@@H]2O1 [Compound 18, 8-(Benzylthio)-6-pyrrolidino-9-β-D-ribofuranosylpurine 3',5'-Cyclic Phosphate]
inhibition of phosphodiesterase (phosphodiesterase): inhibit phosphodiesterase markedly

Structure (SMILES): CCNc1ncnc2c1nc(SCc1ccccc1)n2[C@@H]1O[C@@H]2COP(=O)(O)O[C@H]2[C@H]1O [Compound 19, 8-(Benzylthio)-6-(ethylamino)-9-β-D-ribofuranosylpurine 3',5'-Cyclic Phosphate]
activation at 1 µg/mL [3, 4]: 9%
activation at 3.1 µg/mL [3, 4]: 11%
activation at 10 µg/mL [3, 4]: 17%
activation at 31 µg/mL [3, 4]: 28%
activation at 100 µg/mL [3, 4]: 45%
activation at 310 µg/mL [3, 4]: 88%
positive inotropic effect [3]: exhibit positive inotropic effect
inhibition of phosphodiesterase (phosphodiesterase): inhibit phosphodiesterase markedly

Structure (SMILES): CCCNc1ncnc2c1nc(SCc1ccccc1)n2[C@@H]1O[C@@H]2COP(=O)(O)O[C@H]2[C@H]1O [Compound 20, 8-(Benzylthio)-6-n-propylamino-9-β-D-ribofuranosylpurine 3',5'-Cyclic Phosphate]
activation at 310 µg/mL [3, 4]: 30%
activation at 500 µg/mL ([3]; Felis catus, 500 μg/ml, read-out: % change in Contractile Force (CF)): 50%
positive inotropic effect [3]: exhibit positive inotropic effect

Structure (SMILES): CN(C)c1ncnc2c1nc(SCc1ccccc1)n2[C@@H]1O[C@@H]2COP(=O)(O)O[C@H]2[C@H]1O [Compound 24, 8-(Benzylthio)-6-dimethylamino-9-β-D-ribofuranosylpurine 3',5'-Cyclic Phosphate]
activation at 1 µg/mL [3, 4]: 4%
activation at 3.1 µg/mL [3, 4]: 9%
activation at 10 µg/mL [3, 4]: 13%
activation at 31 µg/mL [3, 4]: 18%
activation at 100 µg/mL [3, 4]: 45%
activation at 310 µg/mL [3, 4]: 118%
positive inotropic effect [3]: exhibit positive inotropic effect

Structure (SMILES): O=P1(O)OC[C@H]2O[C@@H](n3c(Sc4ccc(Cl)cc4)nc4c(N5CCCCC5)ncnc43)[C@H](O)[C@@H]2O1 [Compound 34, 8-(p-Chlorophenylthio)-6-piperidino-9-β-D-ribofuranosylpurine 3',5'-Cyclic Phosphate]
inhibition of phosphodiesterase (phosphodiesterase): inhibit phosphodiesterase markedly

Structure (SMILES): CCN(CC)c1ncnc2c1nc(Sc1ccc(Cl)cc1)n2[C@@H]1O[C@@H]2COP(=O)(O)O[C@H]2[C@H]1O [Compound 35, 8-(p-Chlorophenylthio)-6-(diethylamino)-9-β-D-ribofuranosylpurine 3',5'-Cyclic Phosphate]
inhibition of phosphodiesterase (phosphodiesterase): inhibit phosphodiesterase markedly

Structure (SMILES): CCCCNc1ncnc2c1nc(Sc1ccc(Cl)cc1)n2[C@@H]1O[C@@H]2COP(=O)(O)O[C@H]2[C@H]1O [Compound 36, 6-n-Butylamino-8-(p-chlorophenylthio)-9-β-D-ribofuranosylpurine 3',5'-Cyclic Phosphate]
activation at 1 µg/mL [3, 4]: 9.8%
activation at 3.1 µg/mL [3, 4]: 15%
activation at 10 µg/mL [3, 4]: 52.7%
activation at 31 µg/mL [3, 4]: 62.3%
activation at 100 µg/mL [3, 4]: 29.4%
activation at 310 µg/mL [3, 4]: 101%
positive inotropic effect [3]: exhibit positive inotropic effect

Structure (SMILES): O=P1(O)OC[C@H]2O[C@@H](n3c(Sc4ccc(Cl)cc4)nc4c(Nc5ccccc5)ncnc43)[C@H](O)[C@@H]2O1 [Compound 37, 6-Anilino-8-(p-chlorophenylthio)-9-β-D-ribofuranosylpurine 3',5'-Cylic Phosphate]
activation at 1 µg/mL [3, 4]: 2%
activation at 3.1 µg/mL [3, 4]: 10.3%
activation at 10 µg/mL [3, 4]: 31.3%
activation at 31 µg/mL [3, 4]: 50.2%
activation at 100 µg/mL [3, 4]: 74.5%
activation at 310 µg/mL [3, 4]: 82.3%
positive inotropic effect [3]: exhibit positive inotropic effect

Structure (SMILES): O=P1(O)OC[C@H]2O[C@@H](n3c(SCc4ccccc4)nc4c(NCc5ccccc5)ncnc43)[C@H](O)[C@@H]2O1 [Compound 44, 6-(Benzylamino)-8-(benzylthio)-9-β-D-ribofuranosylpurine 3',5'-Cyclic Phosphate]
inhibition of phosphodiesterase (phosphodiesterase): inhibit phosphodiesterase markedly

The next lines start with results.

protein kinase activation (protein kinase): superior to cyclic AMP
inhibition of adenyl cyclase function (adenyl cyclase): inhibit adenyl cyclase function
Structure (SMILES): CC(=O)O[C@@H]1[C@@H]2OP(=O)(O)OC[C@H]2O[C@H]1n1c(Cl)nc2c(Cl)ncnc21 [Compound 2a, 2'-O-Acetyl-6,8-dichloro-9-β-D-ribofuranosylpurine 3',5'-Cyclic Phosphate Sodium Salt]

protein kinase activation (protein kinase): superior to cyclic AMP
inhibition of adenyl cyclase function (adenyl cyclase): inhibit adenyl cyclase function
Structure (SMILES): CCCC(=O)O[C@@H]1[C@@H]2OP(=O)(O)OC[C@H]2O[C@H]1n1c(Cl)nc2c(Cl)ncnc21 [Compound 2b, 2'-O-Butyryl-6,8-dichloro-9-β-D-ribofuranosylpurine 3',5'-Cyclic Phosphate Sodium Salt]

protein kinase activation (protein kinase): superior to cyclic AMP
inhibition of phosphodiesterase (phosphodiesterase): inhibit phosphodiesterase markedly
Structure (SMILES): Nc1nc2c(Cl)ncnc2n1[C@@H]1O[C@@H]2COP(=O)(O)O[C@H]2[C@H]1O [Compound 4, 8-Amino-6-chloro-9-β-D-ribofuranosylpurine 3',5'-Cyclic Phosphate]

inhibition of phosphodiesterase (phosphodiesterase): inhibit phosphodiesterase markedly
Structure (SMILES): Nc1nc2c(S)ncnc2n1[C@@H]1O[C@@H]2COP(=O)(O)O[C@H]2[C@H]1O [Compound 6, 8-Amino-9-β-D-ribofuranosyl-6-thiopurine 3',5'-Cyclic Phosphate]

protein kinase activation (protein kinase): superior to cyclic AMP
inhibition of phosphodiesterase (phosphodiesterase): inhibit phosphodiesterase markedly
Structure (SMILES): CCN(CC)c1ncnc2c1nc(Cl)n2[C@@H]1O[C@@H]2COP(=O)(O)O[C@H]2[C@H]1O [Compound 9, 8-Chloro-6-(diethylamino)-9-β-D-ribofuranosylpurine 3',5'-Cyclic Phosphate]

inhibition of phosphodiesterase (phosphodiesterase): inhibit phosphodiesterase markedly
Structure (SMILES): CCN(CC)c1nc2c(Cl)ncnc2n1[C@@H]1O[C@@H]2COP(=O)(O)O[C@H]2[C@H]1O [Compound 10, 6-Chloro-8-(diethylamino)-9-β-D-ribofuranosylpurine 3',5'-Cyclic Phosphate]

inhibition of adenyl cyclase function (adenyl cyclase): inhibit adenyl cyclase function
inhibition of phosphodiesterase (phosphodiesterase): inhibit phosphodiesterase markedly
Structure (SMILES): CCN(CC)c1ncnc2c1nc(N(CC)CC)n2[C@@H]1O[C@@H]2COP(=O)(O)O[C@H]2[C@H]1O [Compound 11, 6,8-Bis-(diethylamino)-9-β-D-ribofuranosylpurine 3',5'-Cyclic Phosphate]
antihypertensive properties [1]: displayed antihypertensive properties

protein kinase activation (protein kinase): superior to cyclic AMP
Structure (SMILES): CCCCNc1ncnc2c1nc(SC)n2[C@@H]1O[C@@H]2COP(=O)(O)O[C@H]2[C@H]1O [Compound 30, 6-n-Butylamino-8-(methylthio)-9-β-D-ribofuranosylpurine 3',5'-Cyclic Phosphate]

inhibition of phosphodiesterase (phosphodiesterase): inhibit phosphodiesterase markedly
Structure (SMILES): O=P1(O)OC[C@H]2O[C@@H](n3c(Br)nc4c(NCc5ccccc5)ncnc43)[C@H](O)[C@@H]2O1 [Compound 42, 6-(Benzylamino)-8-bromo-9-β-D-ribofuranosylpurine 3',5'-Cyclic Phosphate]

inhibition of phosphodiesterase (phosphodiesterase): inhibit phosphodiesterase markedly
Structure (SMILES): CSc1nc2c(NCc3ccccc3)ncnc2n1[C@@H]1O[C@@H]2COP(=O)(O)O[C@H]2[C@H]1O [Compound 43, 6-(Benzylamino)-8-(methylthio)-9-β-D-ribofuranosylpurine 3',5'-Cyclic Phosphate]

inhibition of phosphodiesterase (phosphodiesterase): inhibit phosphodiesterase markedly
Structure (SMILES): CN(C)c1nc(N)nc2c1nc(Cl)n2[C@@H]1O[C@@H]2COP(=O)(O)O[C@H]2[C@H]1O [Compound 56, 2-Amino-8-chloro-6-dimethylamino-9-β-D-ribofuranosylpurine 3',5'-Cyclic Phosphate]
